Assay results as given in patent publication US10934310B2, “Inhibitors of Bruton's tyrosine kinase and method of their use” (JANSSEN PHARMACEUTICA NV, priority 2015, dated 2021).

Each molecule was assayed against unphosphorylated-BTK kinase domain (UP-BTK), GST-tagged human BTK (389-659aa) (Homo sapiens (Human), UniProt Q06187) (assay: BTK Kinase Lanthascreen Binding Assay). Conditions: Lanthascreen binding, 60 minutes incubation; pIC50 = negative log of the IC50 in molar.
Experimental: BTK Kinase Lanthascreen Binding Assay:
A BTK kinase lanthascreen binding assay monitors compound binding to unphosphorylated-BTK kinase domain (UP-BTK), by competing with a fluorescent labeled tracer. […] Data were analyzed using Xlfit™ version 5.3 from ID Business Solutions (Guildford), Microsoft Excel add-in. pIC50 refers to the negative log of the IC50 in molar.

Chain of unphosphorylated-BTK kinase domain (UP-BTK), GST-tagged human BTK (389-659aa) (Q06187 389-659): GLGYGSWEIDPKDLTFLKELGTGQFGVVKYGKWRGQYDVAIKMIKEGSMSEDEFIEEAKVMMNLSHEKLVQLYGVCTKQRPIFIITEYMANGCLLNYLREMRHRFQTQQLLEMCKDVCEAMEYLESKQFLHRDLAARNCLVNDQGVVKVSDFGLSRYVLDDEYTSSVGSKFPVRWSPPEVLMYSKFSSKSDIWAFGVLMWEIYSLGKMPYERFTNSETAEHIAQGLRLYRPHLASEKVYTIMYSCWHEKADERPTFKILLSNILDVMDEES

Row | BTK_I_binding pIC50 | Structure (SMILES)
1 | 8.39 | C=CC(=O)N[C@H]1CCC[C@H]1NC(=O)c1sc2nccc3c2c1NC(=O)N3c1ncc(Oc2ccccc2)cn1 [Example 296, N-((1R,2S)-2-acrylamidocyclopentyl)-4-oxo-5-(5-phenoxypyrimidin-2-yl)-4,5-dihydro-3H-1-thia-3,5,8-triazaacenaphthylene-2-carboxamide]
2 | 7.54 | C=CC(=O)N[C@H]1CCC[C@H]1NC(=O)c1sc2nccc3c2c1NC(=O)N3c1ccc(Oc2cccnc2C)cc1C [Example 367, N-((1R,2S)-2-acrylamidocyclopentyl)-5-(2-methyl-4-((2-methylpyridin-3-yl)oxy)phenyl)-4-oxo-4,5-dihydro-3H-1-thia-3,5,8-triazaacenaphthylene-2-carboxamide]
3 | 8.02 | C=CC(=O)N[C@H]1CCC[C@H]1NC(=O)c1sc2nccc3c2c1NC(=O)N3c1cccc(C(C)C)c1 [Example 438, N-((1R,2S)-2-Acrylamidocyclopentyl)-5-(3-isopropylphenyl)-4-oxo-4,5-dihydro-3H-1-thia-3,5,8-triazaacenaphthylene-2-carboxamide]
4 | 6.21 | CC(=O)N[C@@H]1CC[C@H](NC(=O)c2sc3nccc4c3c2NC(=O)N4c2ccc(OC(C)C)cc2C)C1 [Example 454, N-((1S,3R)-3-Acetamidocyclopentyl)-5-(4-isopropoxy-2-methylphenyl)-4-oxo-4,5-dihydro-3H-1-thia-3,5,8-triazaacenaphthylene-2-carboxamide]
5 | 7.78 | C=CC(=O)N[C@H]1CCC[C@H](NC(=O)c2sc3nccc4c3c2NC(=O)N4c2cnc(Oc3ccccc3)cc2C)C1 (single isomer, unassigned) [Example 308, N-((1*S,3*S)-3-Acrylamidocyclohexyl)-5-(*S)-(4-methyl-6-phenoxypyridin-3-yl)-4-oxo-4,5-dihydro-3H-1-thia-3,5,8-triazaacenaphthylene-2-carboxamide]
6 | 8.13 | C=CC(=O)N[C@H]1CCC[C@H]1NC(=O)c1sc2nccc3c2c1NC(=O)N3c1ccc(Oc2cccc(C)n2)cc1C [Example 368, N-((1R,2S)-2-acrylamidocyclopentyl)-5-(2-methyl-4-((6-methylpyridin-2-yl)oxy)phenyl)-4-oxo-4,5-dihydro-3H-1-thia-3,5,8-triazaacenaphthylene-2-carboxamide]
7 | 7.20 | CCC(=O)N[C@H]1CCCC[C@H]1NC(=O)c1sc2nccc3c2c1NC(=O)N3c1ccc(Oc2ccccc2)cc1C (single isomer, unassigned) [Example 380, 5-(*S)-(2-Methyl-4-phenoxyphenyl)-4-oxo-N-((1R,2S)-2-propionamidocyclohexyl)-4,5-dihydro-3H-1-thia-3,5,8-triazaacenaphthylene-2-carboxamide]
8 | 7.39 | C=CC(=O)N[C@H]1CCC[C@H]1NC(=O)c1sc2nccc3c2c1NC(=O)N3c1cnc(Oc2cncnc2)cc1C [Example 486, N-((1R,2S)-2-Acrylamidocyclopentyl)-5-(4-methyl-6-(pyrimidin-5-yloxy)pyridin-3-yl)-4-oxo-4,5-dihydro-3H-1-thia-3,5,8-triazaacenaphthylene-2-carboxamide]
9 | 6.81 | C=CC(=O)N[C@@H]1CC[C@@H](NC(=O)c2sc3nccc4c3c2NC(=O)N4c2ccc(Oc3ccccc3)nc2)C1 (single isomer, unassigned) [Example 334, N-((1*R,3*R)-3-Acrylamidocyclopentyl)-4-oxo-5-(6-phenoxypyridin-3-yl)-4,5-dihydro-3H-1-thia-3,5,8-triazaacenaphthylene-2-carboxamide]

Same assay, conditions: compound, 50 nM Tracer 236, 2 nM anti-GST antibody, 60 minutes; pIC50 = negative log of the IC50 in molar

Row | Structure (SMILES) | BTK_I_binding pIC50
10 | C=CC(=O)N[C@H]1CCCC[C@H]1NC(=O)c1sc2nccc3c2c1NC(=O)N3c1cnc(OC2CCC2)cc1C (single isomer, unassigned) [Example 221, N-((1R,2S)-2-Acrylamidocyclohexyl)-5-(*S)-(6-cyclobutoxy-4-methylpyridin-3-yl)-4-oxo-4,5-dihydro-3H-1-thia-3,5,8-triazaacenaphthylene-2-carboxamide] | 8.29
11 | C=CC(=O)N[C@@H]1CCC[C@H]1NC(=O)c1sc2nccc3c2c1NC(=O)N3c1ccc(Oc2ccccc2)nc1 [Example 177, N-((1R,2R)-2-Acrylamidocyclopentyl)-4-oxo-5-(6-phenoxypyridin-3-yl)-4,5-dihydro-3H-1-thia-3,5,8-triazaacenaphthylene-2-carboxamide] | 7.49
12 | Cc1cc(Oc2ccccc2)ccc1N1C(=O)Nc2c(C(=O)N[C@H]3CC[C@@H](NC(=O)/C(C#N)=C/C4CC4)CC3)sc3nccc1c23 [Example 19, N-((1S,4S)-4-((E)-2-Cyano-3-cyclopropylacrylamido)cyclohexyl)-5-(2-methyl-4-phenoxyphenyl)-4-oxo-4,5-dihydro-3H-1-thia-3,5,8-triazaacenaphthylene-2-carboxamide] | 6.63
13 | C=CC(=O)N[C@H]1CC[C@@H](NC(=O)c2sc3nccc4c3c2NC(=O)N4c2ccc(Oc3ccccc3)cc2)CC1 [Example 119, N-((1S,4S)-4-Acrylamidocyclohexyl)-4-oxo-5-(4-phenoxyphenyl)-4,5-dihydro-3H-1-thia-3,5,8-triazaacenaphthylene-2-carboxamide] | 7.61
14 | C=CC(=O)N[C@H]1CCCC[C@H]1NC(=O)c1sc2nccc3c2c1NC(=O)N3c1ccc(OC(C)C)nc1C (single isomer, unassigned) [Example 238, N-((1R,2S)-2-Acrylamidocyclohexyl)-5-(*R)-(6-isopropoxy-2-methylpyridin-3-yl)-4-oxo-4,5-dihydro-3H-1-thia-3,5,8-triazaacenaphthylene-2-carboxamide] | 6.95
15 | C=CC(=O)N[C@H]1CCCC[C@H]1NC(=O)c1sc2nccc3c2c1NC(=O)N3c1cnc(OC2CCC2)cc1C [Example 183, N-((1R,2S)-2-Acrylamidocyclohexyl)-5-(6-cyclobutoxy-4-methylpyridin-3-yl)-4-oxo-4,5-dihydro-3H-1-thia-3,5,8-triazaacenaphthylene-2-carboxamide] | 7.58
16 | C=CC(=O)N[C@H]1CCCC[C@H]1NC(=O)c1sc2nccc3c2c1NC(=O)N3c1ccc(OC(C)C)nc1C [Example 211, N-((1R,2S)-2-Acrylamidocyclohexyl)-5-(6-isopropoxy-2-methylpyridin-3-yl)-4-oxo-4,5-dihydro-3H-1-thia-3,5,8-triazaacenaphthylene-2-carboxamide] | 6.92
17 | N[C@H]1CC[C@H](NC(=O)c2sc3nccc4c3c2NC(=O)N4c2ccc(Oc3ccccc3)cc2)CC1 [Example 146, N-(trans-(1R,4R)-4-Aminocyclohexyl)-4-oxo-5-(4-phenoxyphenyl)-4,5-dihydro-3H-1-thia-3,5,8-triazaacenaphthylene-2-carboxamide] | 6.66

Further lines, results first:

Row | BTK_I_binding pIC50 | Structure (SMILES)
18 | 6.17 | CC(=O)N[C@@H]1CCCC[C@@H]1NC(=O)c1sc2nccc3c2c1NC(=O)N3c1ccc(Oc2ccccc2)cc1C [Example 44, N-((1S,2R)-2-Acetamidocyclohexyl)-5-(2-methyl-4-phenoxyphenyl)-4-oxo-4,5-dihydro-3H-1-thia-3,5,8-triazaacenaphthylene-2-carboxamide]
19 | 7.88 | Cc1cc(Oc2ccccc2)ccc1N1C(=O)Nc2c(C(=O)N[C@@H]3CCC[C@H]3NC(=O)CN)sc3nccc1c23 (single isomer, unassigned) [Example 113, N-((1R,2R)-2-(2-Aminoacetamido)cyclopentyl)-5-(*S)-(2-methyl-4-phenoxyphenyl)-4-oxo-4,5-dihydro-3H-1-thia-3,5,8-triazaacenaphthylene-2-carboxamide]
20 | 6.66 | CC(=O)N[C@H]1CC[C@@H](NC(=O)c2sc3nccc4c3c2NC(=O)N4c2ccc(Oc3ccccc3)cc2C)C1 (single isomer, unassigned) [Example 244, N-((1R,3S)-3-Acetamidocyclopentyl)-5-(*S)-(2-methyl-4-phenoxyphenyl)-4-oxo-4,5-dihydro-3H-1-thia-3,5,8-triazaacenaphthylene-2-carboxamide]
21 | 7.02 | CNCC(=O)N[C@@H]1CC[C@H](NC(=O)c2sc3nccc4c3c2NC(=O)N4c2ccc(Oc3ccccc3)cc2C)C1 [Example 72, 5-(2-Methyl-4-phenoxyphenyl)-N-((1S,3R)-3-(2-(methylamino)acetamido)cyclopentyl)-4-oxo-4,5-dihydro-3H-1-thia-3,5,8-triazaacenaphthylene-2-carboxamide]
22 | 7.13 | Cc1cc(Oc2ccccc2)ccc1N1C(=O)Nc2c(C(=O)N[C@@H]3CCC[C@H]3N)sc3nccc1c23 [Example 22, N-((1R,2R)-2-Aminocyclopentyl)-5-(2-methyl-4-phenoxyphenyl)-4-oxo-4,5-dihydro-3H-1-thia-3,5,8-triazaacenaphthylene-2-carboxamide]
23 | 7.95 | Cc1cc(Oc2ccccc2)ccc1N1C(=O)Nc2c(C(=O)N[C@@H]3CCC[C@@H]3O)sc3nccc1c23 (single isomer, unassigned) [Example 8, N-((1R,2S)-2-Hydroxycyclopentyl)-5-(*S)-(2-methyl-4-phenoxyphenyl)-4-oxo-4,5-dihydro-3H-1-thia-3,5,8-triazaacenaphthylene-2-carboxamide]
24 | 6.47 | Cc1cc(Oc2ccccc2)ccc1N1C(=O)Nc2c(C(=O)N[C@H]3CC[C@@H](NC(=O)/C=C/CN)CC3)sc3nccc1c23 [Example 79, N-((1S,4S)-4-((E)-4-Aminobut-2-enamido)cyclohexyl)-5-(2-methyl-4-phenoxyphenyl)-4-oxo-4,5-dihydro-3H-1-thia-3,5,8-triazaacenaphthylene-2-carboxamide]

Same assay, conditions: read-out: BTK_I_binding pIC50 (converted)

Row | IC50 [nM] | Structure (SMILES)
25 | > 1000 | CC(C)Oc1ccc(N2C(=O)Nc3c(C(=O)N[C@@H]4CCC[C@@H]4N)sc4nccc2c34)cc1 [Example 271, N-((1R,2S)-2-Aminocyclopentyl)-5-(4-isopropoxyphenyl)-4-oxo-4,5-dihydro-3H-1-thia-3,5,8-triazaacenaphthylene-2-carboxamide]
